Assays:
[1] = biological target: T1, human recombinant CD38 enzyme (Homo sapiens, UniProt P28907); experiment: Human recombinant enzyme assay (fluorimetric CD38 enzyme assay, ε-NAD substrate); assay type: biochemical; conditions: recombinant CD38 100 ng/ml, ε-NAD 100 µM, pH = 6.0, 37°C, reaction time 30 min; read-out: IC50 (nM) ENAD
T1 construct: purchased R&D Systems H7006
T1 sequence (P28907 1-300): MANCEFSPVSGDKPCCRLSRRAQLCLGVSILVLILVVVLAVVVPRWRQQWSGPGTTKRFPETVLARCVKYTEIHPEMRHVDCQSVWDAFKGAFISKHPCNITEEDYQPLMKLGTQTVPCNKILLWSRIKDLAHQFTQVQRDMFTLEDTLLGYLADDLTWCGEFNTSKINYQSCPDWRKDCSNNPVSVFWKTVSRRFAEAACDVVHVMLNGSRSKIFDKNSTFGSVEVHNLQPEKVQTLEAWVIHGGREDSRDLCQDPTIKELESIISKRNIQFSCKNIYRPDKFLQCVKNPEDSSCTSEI
Method: Enzyme assay on human recombinant CD38 enzyme were performed in order to determine the in vitro potency of the newly synthesized compounds. IC50 values were determined for the test compounds and used to explore the structure-activity relationships (SAR).
(§1) N6-etheno-NAD (ε-NAD), a NAD analogue previously shown to be a convenient substrate of CD38 enzyme activity (Graeff et al. J. Biol. Chem. 269, pp 30260-30367, […]) was used to measure the activity of human recombinant CD38 and cell surface enzyme activity.
A fluorimetric CD38 enzyme assay was performed as described by Graeff et al. The reaction was started with 10 µl of N6-etheno-NAD (ε-NAD) substrate, final concentration 100 µM, in a final volume of 0.1 ml buffered with 50 mM HEPES, 0.05% BRIJ, pH = 6.0 containing 100 ng/ml recombinant CD38 (R&D Systems, H7006). Cleavage of ε-NAD, which causes a 10-fold fluorescence enhancement, was continuously followed at 37°C in a BMG Polarstar spectrofluorometer at an emission wavelength of 410 nm and an excitation of 300 nm, reaction time was 30 min. NADase activity was expressed as Δ relative fluorescence/min. The rate of enzyme reactions were compared in the presence and absence of inhibitor molecule, the IC50 values were calculated with Biostat Speed program.

[2] = biological target: T2, natural cell surface human CD38 enzyme (Homo sapiens, UniProt P28907); experiment: Cell surface enzyme assay on A549 cells; assay type: cell-based; conditions: A549 human lung epithelial cells, pre-incubated 15 min, ε-NAD 100 µM, 60 min, pH=7.4
T2 construct: The A549 cells express active CD38 enzyme on the cell surface; endogenous in cells; host or cells: A549 human lung epithelial cells (ATCC CCL 185)
T2 sequence (P28907 1-300): T1 sequence (P28907 1-300)
Method: A549 human lung epithelial cells were used as enzyme source. The A549 cells express active CD38 enzyme on the cell surface.
as §1
Type II-like human lung epithelial cells A 549 (ATCC CCL 185) were grown in RPMI 1640 medium supplemented with 10% fetal calf serum, 2mM 1-glutamine and penicillin/streptomycin 1% in a humidified incubator with an atmosphere of 95% air and 5% CO2 at 37 °C. At about 70-80% confluence, cells were detached with trypsin/EDTA solution to form a cell suspension and counted. Cell viability was higher as 95% using trypan blue dye. Cells were plated at a density of 500.000 cells/well (24 well plate), before 24 hours of starting the enzyme assay. The medium was removed and replaced by assay buffer (20 mM HEPES, pH=7.4 containing 140 mM NaCl, 5 mM KCl, 1 mM MgSO4 1 mM CaCl2, 1mM Na2HPO4, 5.5 mM glucose).
A549 cells (800.000/well, 500 µl) were pre-incubated in the presence and absence of inhibitors for 15 min before the addition of ε-NAD, final substrate concentration was 100 µM. After 60 min, the plate was centrifuged and 100 µl of supernatant was removed and measured fluorimetrically in BMG Polarstar spectrofluorimeter at an emission wavelength of 410 nm and an excitation of 300 nm. The mean difference in the fluorescence between reaction stopped at 0 and 60 min was used an arbitrary unit of NADase activity. The NADase activity in the absence and presence of inhibitors were compared and IC50 values were calculated.

Compound | IC50 [1] [nM] | IC50 [2] [nM]
O=C1N/C(=C\c2ccncc2)C(=O)N1c1ccc(Cl)cc1 [Compound 2, 3-(4-Chloro-phenyl)-5-[1-pyridin-4-yl-meth-(Z)-ylidene]-imidazolidine-2,4-dione] | 30 | 181
CCCCc1ccc(N2C(=O)N/C(=C\c3ccncc3)C2=O)cc1 [Compound 24, 3-(4-Butyl-phenyl)-5-[1-pyridin-4-yl-meth-(Z)-ylidene]-imidazolidine-2,4-dione] | 80 | 297
O=C(c1cccc(N2C(=O)N/C(=C\c3ccncc3)C2=O)c1)N1CCOCC1 [Compound 28, 3-[3-(Morpholine-4-carbonyl)-phenyl]-5-[1-pyridin-4-yl-meth-(Z)-ylidene]-imidazolidine-2,4-dione] | 50 | 359
O=C1N/C(=C\c2ccncc2)C(=O)N1c1ccc(I)cc1 [Compound 33, 3-(4-Iodo-phenyl)-5-[1-pyridin-4-yl-meth-(Z)-ylidene]-imidazolidine-2,4-dione] | 38 | 272
CCOc1ccc(CCN2C(=O)N/C(=C\c3ccncc3)C2=O)cc1OCC [Compound 36, 3-[2-(3,4-Diethoxy-phenyl)-ethyl]-5-[1-pyridin-4-yl-meth-(Z)-ylidene]-imidazolidine-2,4-dione] | 250 | –
O=C1N/C(=C\c2ccncc2)C(=O)N1CCN1CCCC1 [Compound 37, 5-[1-Pyridin-4-yl-meth-(Z)-ylidene]-3-(2-pyrrolidin-1-yl-ethyl)-imidazolidine-2,4-dione] | 290 | –
O=C1N/C(=C\c2ccncc2)C(=O)N1C12CC3CC(CC(C3)C1)C2 [Compound 38, 3-Adamantan-1-yl-5-[1-pyridin-4-yl-meth-(Z)-ylidene]-imidazolidine-2,4-dione] | 400 | –
O=C1N/C(=C\c2ccncc2)C(=O)N1c1cccnc1 [Compound 39, 3-Pyridin-3-yl-5-[1-pyridin-4-yl-meth-(Z)-ylidene]-imidazolidine-2,4-dione] | 61 | –
O=C1N/C(=C\c2ccncc2)C(=O)N1C1CCC(O)CC1 (stereo not drawn) [Compound 40, 3-(4-Hydroxy-cyclohexyl)-5-[1-pyridin-4-yl-meth-(Z)-ylidene]-imidazolidine-2,4-dione] | 214 | –
CCCN1C(=O)N/C(=C\c2ccncc2)C1=O [Compound 41, 3-Propyl-5-[1-pyridin-4-yl-meth-(Z)-ylidene]-imidazolidine-2,4-dione] | 80 | –
CCC(C)N1C(=O)N/C(=C\c2ccncc2)C1=O (stereo not drawn) [Compound 42, 3-sec-Butyl-5-[1-pyridin-4-yl-meth-(Z)-ylidene]-imidazolidine-2,4-dione] | 868 | –
CCOC(=O)CN1C(=O)N/C(=C\c2ccncc2)C1=O [Compound 43, {2,5-Dioxo-4-[1-pyridin-4-yl-meth-(Z)-ylidene]-imidazolidin-1-yl}-acetic acid ethyl ester] | 224 | –
O=C1N/C(=C\c2ccncc2)C(=O)N1CCCN1CCOCC1 [Compound 44, 3-(3-Morpholin-4-yl-propyl)-5-[1-pyridin-4-yl-meth-(Z)-ylidene]-imidazolidine-2,4-dione] | 151 | –
C[C@@H]1CN(C(=O)c2ccc(N3C(=O)N/C(=C\c4ccncc4)C3=O)cc2)C[C@H](C)O1 [Compound 45, 3-[4-((2R,6S)-2,6-Dimethyl-morpholine-4-carbonyl)-phenyl]-5-[1-pyridin-4-yl-meth-(Z)-ylidene]-imidazolidine-2,4-dione] | 34 | –
O=C(O)CN1C(=O)N/C(=C\c2ccncc2)C1=O [Compound 46, {2,5-Dioxo-4-[1-pyridin-4-yl-meth-(Z)-ylidene]-imidazolidin-1-yl}-acetic acid] | 490 | –
CC1CCN(C(=O)c2ccc(N3C(=O)N/C(=C\c4ccncc4)C3=O)cc2)CC1 [Compound 47, 3-[4-(4-Methyl-piperidine-1-carbonyl)-phenyl]-5-[1-pyridin-4-yl-meth-(Z)-ylidene]-imidazolidine-2,4-dione] | 74 | –
O=C(c1ccc(N2C(=O)N/C(=C\c3ccncc3)C2=O)cc1)N1CCCC1 [Compound 48, 5-[1-Pyridin-4-yl-meth-(Z)-ylidene]-3-[4-(pyrrolidine-1-carbonyl)-phenyl]-imidazolidine-2,4-dione] | 52 | –
O=C(NC1CCCC1)c1ccc(N2C(=O)N/C(=C\c3ccncc3)C2=O)cc1 [Compound 49, N-Cyclopentyl-4-{2,5-dioxo-4-[1-pyridm-4-yl-meth-(Z)-ylidene]-imidazolidm-1-yl}-benzamide] | 50 | –
O=C(NC1CC1)c1ccc(N2C(=O)N/C(=C\c3ccncc3)C2=O)cc1 [Compound 50, N-Cyclopropyl-4-{2,5-dioxo-4-[1-pyridin-4-yl-meth-(Z)-ylidene]-imidazolidin-1-yl}-benzamide] | 63 | –
O=C(NC1CCCCC1)c1ccc(N2C(=O)N/C(=C\c3ccncc3)C2=O)cc1 [Compound 51, N-Cyclohexyl-4-{2,5-dioxo-4-[1-pyndin-4-yl-meth-(Z)-ylidene]-imidazolidin-1-yl}-benzamide] | 63 | –
CC(C)(CO)CN1C(=O)N/C(=C\c2ccncc2)C1=O [Compound 52, 3-(3-Hydroxy-2,2-dimethyl-propyl)-5-[1-pyridin-4-yl-meth-(Z)-ylidene]-imidazolidine-2,4-dione] | 42 | –
O=C1N/C(=C\c2ccncc2)C(=O)N1C1CC(F)(F)C1 [Compound 53, 3-(3,3-Difluoro-cyclobutyl)-5-[1-pyridin-4-yl-meth-(Z)-ylidene]-imidazolidine-2,4-dione] | 50 | 249
CCOC(=O)C1CCN(C(=O)c2ccc(N3C(=O)N/C(=C\c4ccncc4)C3=O)cc2)CC1 [Compound 54, 1-(4-{2,5-Dioxo-4-[1-pyridin-4-yl-meth-(Z)-ylidene]-imidazotidin-l-yl}-benzoyl)-piperidine-4-carboxylic acid ethyl ester] | 36 | –
O=C1N/C(=C\c2ccncc2)C(=O)N1CC1(O)CCCCC1 [Compound 55, 3-(1-Hydroxy-cyclohexylmethyl)-5-[1-pyridin-4-yl-meth-(Z)-ylidene]-imidazotidine-2,4-dione] | 55 | 242
O=C1N/C(=C\c2ccncc2)C(=O)N1CC1CCOCC1 [Compound 56, 5-[1-Pyridin-4-yl-meth-(Z)-ylidene]-3-(tetrahydro-pyran-4-ylmethyl)-imidazolidine-2,4-dione] | 20 | 137
CC(C)(O)CCN1C(=O)N/C(=C\c2ccncc2)C1=O [Compound 57, 3-(3-Hydroxy-3-methyl-butyl)-5-[1-pyridin-4-yl-meth-(Z)-ylidene] -imidazolidine-2,4-dione] | 20 | –
O=C1N/C(=C\c2ccncc2)C(=O)N1CC1(CO)CCC1 [Compound 63, 3-(1-Hydroxymethyl-cyclobutylmethyl)-5-[1-pyridin-4-yl-meth-(Z)-ylidene]-imidazolidine-2,4-dione] | 12 | –
O=C1N/C(=C\c2ccncc2)C(=O)N1CC1(CO)CCCC1 [Compound 64, 3-(1-Hydroxymethyl-cyclopentylmethyl)-5-[1-pyridin-4-yl-meth-(Z)-ylidene]-imidazolidine-2,4-dione] | 16 | –
O=C1N/C(=C\c2ccncc2)C(=O)N1CCNC(=O)C(F)(F)F [Compound 65, N-(2-{2,5-Dioxo-4-[1-pyridin-4-yl-meth-(Z)-ylidene]-imidazolidin-1-yl}-ethyl)-2,2,2-trifluoro-acetamide] | 240 | –

Reference: patent EP2801573A1, “Hydantoine derivatives as CD38 inhibitors” (SANOFI, priority 2013, dated 2014)
